The structures appear in SMILES notation. Bridge positions count the residues as written; N and C are the ends. Square brackets hold non-standard residues; d marks the D form. Peptide text beside a SMILES is read from it. * marks the point of attachment. ξ: configuration not given here. Phe(4-CH2CH2COOH) = N[C@@H](Cc1ccc(CCC(=O)O)cc1)C(=O)O; Phe(3-CF3) = N[C@@H](Cc1cccc(C(F)(F)F)c1)C(=O)O; Phe(4-COOH) = N[C@@H](Cc1ccc(C(=O)O)cc1)C(=O)O; Bip = N[C@@H](Cc1ccc(-c2ccccc2)cc1)C(=O)O; Abu(4,4,4-F3) = N[C@@H](CC(F)(F)F)C(=O)O; NH(CH2)14COOH = O=C(O)CCCCCCCCCCCCCCN*; Phe(3-Me) = Cc1cccc(C[C@H](N)C(=O)O)c1; NH(CH2)12COOH = O=C(O)CCCCCCCCCCCCN*; Val(3-OH) = CC(C)(O)[C@H](N)C(=O)O; Cha = N[C@@H](CC1CCCCC1)C(=O)O; Thr(3ξ) = CC(O)[C@H](N)C(=O)O; Carboxymethyl = O=C(O)C*; Nle = CCCC[C@H](N)C(=O)O; Orn = NCCC[C@H](N)C(=O)O; Dab = NCC[C@H](N)C(=O)O; AEEA = NCCOCCOCC(=O)O; CF3 = FC(F)(F)*

By IC50 is commonly meant the concentration at which inhibition is half-maximal.

The target of this assay is T1, PD-1/PD-L1 interaction (PE-labeled human PD-L1-Ig binding to Jurkat cell line over-expressing human PD-1) (Homo sapiens, UniProt Q15116).
T1 construct: expressed in transfected cells; host or cells: Jurkat
T1 sequence (Q15116 25-288): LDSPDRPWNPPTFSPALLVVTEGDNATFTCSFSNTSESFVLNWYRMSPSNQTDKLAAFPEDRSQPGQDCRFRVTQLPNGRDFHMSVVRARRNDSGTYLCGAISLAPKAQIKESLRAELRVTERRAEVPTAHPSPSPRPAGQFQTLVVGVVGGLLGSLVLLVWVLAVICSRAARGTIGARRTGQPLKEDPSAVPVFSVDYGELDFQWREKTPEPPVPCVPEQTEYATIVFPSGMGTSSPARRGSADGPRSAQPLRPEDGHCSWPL
Put plainly: Jurkat-PD-1 Cell Binding High-Content Screening Assay (CBA). It counts as cell-based. Particulars: Jurkat cell line over-expressing human PD-1; PE-labeled PD-L1-Ig 20 nM final; read-out: Jurkat hPD1-PDL1 IC50. The method in brief: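 Jurkat cells over-expressing human PD-1 (8×10^3 per well, DMEM/10% FCS) preincubated with compound 2 h at 37° C, then PE-labeled human PD-L1-Ig (20 nM final) added for 1 h. Cells fixed with paraformaldehyde, Hoechst-stained, and bound fluorescence quantified by high-content imaging.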
With `Cc1cccc(C[C@@H]2NC(=O)[C@H](CC(=O)O)NC(=O)[C@H](Cc3ccc(OCC(=O)O)cc3)NC(=O)[C@H](C)NC(=O)CSC[C@@H](C(=O)N[C@@H](CCN)C(=O)NCCOCCOCC(=O)NCCOCCOCC(=O)NCCOCCOCC(=O)NCCCCCCCCCCCCCCC(=O)O)NC(=O)[C@H](CO)NC(=O)[C@H](C(C)(C)O)NC(=O)[C@H](CC3CCCCC3)NC(=O)[C@H](CCN)NC(=O)[C@@H](CC(C)C)NC(=O)[C@H](CCCN)NC(=O)[C@H](Cc3ccc(C(=O)O)cc3)NC(=O)[C@H](Cc3ccc(-c4ccccc4)cc3)NC(=O)[C@H](Cc3ccc(C(=O)O)cc3)NC2=O)c1` [Compound 3854] ({CH2CO}-AY(Carboxymethyl)D[Phe(3-Me)][Phe(4-COOH)][Bip][Phe(4-COOH)][Orn][dL][Dab][Cha][Val(3-OH)]SC[Dab][AEEA][AEEA][AEEA]-{NH(CH2)14COOH}; thioether N-14), the concentration for half-maximal inhibition (IC50) worked out at 45.2 nM.
Take `Cc1cccc(C[C@@H]2NC(=O)[C@H](CC(=O)O)NC(=O)[C@H](Cc3ccc(OCC(=O)O)cc3)NC(=O)[C@H](C)NC(=O)CSC[C@@H](C(=O)N[C@@H](CCN)C(=O)NCCOCCOCC(=O)NCCOCCOCC(=O)NCCCCCCCCCCCCCCC(=O)O)NC(=O)[C@H](Cc3cnc[nH]3)NC(=O)[C@H](C(C)(C)O)NC(=O)[C@H](CC3CCCCC3)NC(=O)[C@H](CCN)NC(=O)[C@@H](CC(C)C)NC(=O)[C@H](CCCN)NC(=O)[C@H](Cc3ccc(C(=O)O)cc3)NC(=O)[C@H](Cc3ccc(-c4ccccc4)cc3)NC(=O)[C@H](Cc3ccc(C(=O)O)cc3)NC2=O)c1` [Compound 3855] ({CH2CO}-AY(Carboxymethyl)D[Phe(3-Me)][Phe(4-COOH)][Bip][Phe(4-COOH)][Orn][dL][Dab][Cha][Val(3-OH)]HC[Dab][AEEA][AEEA]-{NH(CH2)14COOH}; thioether N-14): the IC50 came out at 119 nM.
Regarding `Cc1cccc(C[C@@H]2NC(=O)[C@H](CC(=O)O)NC(=O)[C@H](Cc3ccc(OCC(=O)O)cc3)NC(=O)[C@H](C)NC(=O)CSC[C@@H](C(=O)N[C@@H](CCN)C(=O)NCCOCCOCC(=O)NCCOCCOCC(=O)NCCOCCOCC(=O)NCCCCCCCCCCCCCCC(=O)O)NC(=O)[C@H](Cc3cnc[nH]3)NC(=O)[C@H](C(C)(C)O)NC(=O)[C@H](CC3CCCCC3)NC(=O)[C@H](CCN)NC(=O)[C@@H](CC(C)C)NC(=O)[C@H](CCCN)NC(=O)[C@H](Cc3ccc(C(=O)O)cc3)NC(=O)[C@H](Cc3ccc(-c4ccccc4)cc3)NC(=O)[C@H](Cc3ccc(C(=O)O)cc3)NC2=O)c1` [Compound 3856] ({CH2CO}-AY(Carboxymethyl)D[Phe(3-Me)][Phe(4-COOH)][Bip][Phe(4-COOH)][Orn][dL][Dab][Cha][Val(3-OH)]HC[Dab][AEEA][AEEA][AEEA]-{NH(CH2)14COOH}; thioether N-14), the IC50 came out at 94.2 nM.
As to `CC(C)C[C@H]1NC(=O)[C@H](Cc2cnc[nH]2)NC(=O)[C@H](Cc2ccc(C(=O)O)cc2)NC(=O)[C@H](Cc2ccc(-c3ccccc3)cc2)NC(=O)[C@H](Cc2ccc(C(=O)O)cc2)NC(=O)[C@H](Cc2cccc(C(F)(F)F)c2)NC(=O)[C@H](CC(=O)O)NC(=O)[C@H](Cc2ccc(OCC(=O)O)cc2)NC(=O)[C@H](CC(F)(F)F)NC(=O)CSC[C@@H](C(=O)N[C@@H](CCN)C(=O)NCCCCCCCCCCCCC(=O)O)NC(=O)[C@H](CO)NC(=O)[C@H](C(C)(C)O)NC(=O)[C@H](CC2CCCCC2)NC(=O)[C@H](CCN)NC1=O` [Compound 3857] ({CH2CO}-[Abu(4,4,4-F3)]Y(Carboxymethyl)D[Phe(3-CF3)][Phe(4-COOH)][Bip][Phe(4-COOH)]H[dL][Dab][Cha][Val(3-OH)]SC[Dab]-{NH(CH2)12COOH}; thioether N-14), the IC50 came out at 166 nM.
The value for `CC(=O)NCCCC[C@@H]1NC(=O)[C@H](C(C)(C)O)NC(=O)[C@H](CC2CCCCC2)NC(=O)[C@H](CCN)NC(=O)[C@@H](CC(C)C)NC(=O)[C@H](CCCN)NC(=O)[C@H](Cc2ccc(C(=O)O)cc2)NC(=O)[C@H](Cc2ccc(-c3ccccc3)cc2)NC(=O)[C@H](Cc2ccc(C(=O)O)cc2)NC(=O)[C@H](Cc2cccc(C)c2)NC(=O)[C@H](CC(=O)O)NC(=O)[C@H](Cc2ccc(OC(F)(F)F)cc2)NC(=O)[C@H](Cc2ccc(OCC(=O)O)cc2)NC(=O)CSC[C@@H](C(=O)N[C@@H](CCN)C(=O)NCCOCCOCC(=O)NCCCCCCCCCCCCC(=O)O)NC1=O` [Compound 3859] ({CH2CO}-Y(Carboxymethyl)Y(CF3)D[Phe(3-Me)][Phe(4-COOH)][Bip][Phe(4-COOH)][Orn][dL][Dab][Cha][Val(3-OH)]K(Ac)C[Dab][AEEA]-{NH(CH2)12COOH}; thioether N-14) was 52.7 nM; that for `CC(C)C[C@H]1NC(=O)[C@H](Cc2cnc[nH]2)NC(=O)[C@H](Cc2ccc(OCC(=O)O)cc2)NC(=O)[C@H](Cc2ccc(-c3ccccc3)cc2)NC(=O)[C@H](Cc2ccc(C(=O)O)cc2)NC(=O)[C@H](Cc2cccc(C(F)(F)F)c2)NC(=O)[C@H](CC(=O)O)NC(=O)[C@H](Cc2ccc(OCC(=O)O)cc2)NC(=O)[C@H](C(C)O)NC(=O)CSC[C@@H](C(=O)N[C@@H](CCN)C(=O)NCCCCCCCCCCCCCCC(=O)O)NC(=O)[C@H](C(C)O)NC(=O)[C@H](C(C)(C)O)NC(=O)[C@H](CC2CCCCC2)NC(=O)[C@H](CCN)NC1=O` (stereo partly drawn) [Compound 3861] ({CH2CO}-[Thr(3ξ)]Y(Carboxymethyl)D[Phe(3-CF3)][Phe(4-COOH)][Bip]Y(Carboxymethyl)H[dL][Dab][Cha][Val(3-OH)][Thr(3ξ)]C[Dab]-{NH(CH2)14COOH}; thioether N-14) was 348 nM; that for `CC(C)C[C@H]1NC(=O)[C@H](Cc2cnc[nH]2)NC(=O)[C@H](Cc2ccc(OCC(=O)O)cc2)NC(=O)[C@H](Cc2ccc(-c3ccccc3)cc2)NC(=O)[C@H](Cc2ccc(C(=O)O)cc2)NC(=O)[C@H](Cc2cccc(C(F)(F)F)c2)NC(=O)[C@H](CC(=O)O)NC(=O)[C@H](Cc2ccc(OCC(=O)O)cc2)NC(=O)[C@H](C)NC(=O)CSC[C@@H](C(=O)N[C@@H](CCN)C(=O)NCCCCCCCCCCCCCCC(=O)O)NC(=O)[C@H](C(C)O)NC(=O)[C@H](C(C)(C)O)NC(=O)[C@H](CC2CCCCC2)NC(=O)[C@H](CCN)NC1=O` (stereo partly drawn) [Compound 3862] ({CH2CO}-AY(Carboxymethyl)D[Phe(3-CF3)][Phe(4-COOH)][Bip]Y(Carboxymethyl)H[dL][Dab][Cha][Val(3-OH)][Thr(3ξ)]C[Dab]-{NH(CH2)14COOH}; thioether N-14) was 368 nM.
The value for `CCCC[C@@H]1NC(=O)CSC[C@@H](C(=O)N[C@@H](CCN)C(=O)NCCCCCCCCCCCCCCC(=O)O)NC(=O)[C@H](C(C)O)NC(=O)[C@H](C(C)(C)O)NC(=O)[C@H](CC2CCCCC2)NC(=O)[C@H](CCN)NC(=O)[C@@H](CC(C)C)NC(=O)[C@H](Cc2cnc[nH]2)NC(=O)[C@H](Cc2ccc(OCC(=O)O)cc2)NC(=O)[C@H](Cc2ccc(-c3ccccc3)cc2)NC(=O)[C@H](Cc2ccc(C(=O)O)cc2)NC(=O)[C@H](Cc2cccc(C(F)(F)F)c2)NC(=O)[C@H](CC(=O)O)NC(=O)[C@H](Cc2ccc(OCC(=O)O)cc2)NC1=O` (stereo partly drawn) [Compound 3863] ({CH2CO}-[Nle]Y(Carboxymethyl)D[Phe(3-CF3)][Phe(4-COOH)][Bip]Y(Carboxymethyl)H[dL][Dab][Cha][Val(3-OH)][Thr(3ξ)]C[Dab]-{NH(CH2)14COOH}; thioether N-14) was 430 nM; that for `CC(=O)NCCCC[C@@H]1NC(=O)[C@H](C(C)(C)O)NC(=O)[C@H](CC2CCCCC2)NC(=O)[C@H](CCN)NC(=O)[C@@H](CC(C)C)NC(=O)[C@H](CCCN)NC(=O)[C@H](Cc2ccc(C(=O)O)cc2)NC(=O)[C@H](Cc2ccc(-c3ccccc3)cc2)NC(=O)[C@H](Cc2ccc(C(=O)O)cc2)NC(=O)[C@H](Cc2cccc(C)c2)NC(=O)[C@H](CC(=O)O)NC(=O)[C@H](Cc2ccc(OCC(=O)O)cc2)NC(=O)[C@H](Cc2ccc(OCC(=O)O)cc2)NC(=O)CSC[C@@H](C(=O)N[C@@H](CCN)C(=O)NCCCCCCCCCCCCCCC(=O)O)NC1=O` [Compound 3865] ({CH2CO}-Y(Carboxymethyl)Y(Carboxymethyl)D[Phe(3-Me)][Phe(4-COOH)][Bip][Phe(4-COOH)][Orn][dL][Dab][Cha][Val(3-OH)]K(Ac)C[Dab]-{NH(CH2)14COOH}; thioether N-14) was 119 nM.
The same measure for `CC(C)C[C@H]1NC(=O)[C@H](CCCN)NC(=O)[C@H](Cc2ccc(OCC(=O)O)cc2)NC(=O)[C@H](Cc2ccc(-c3ccccc3)cc2)NC(=O)[C@H](Cc2ccc(CCC(=O)O)cc2)NC(=O)[C@H](Cc2cccc(C(F)(F)F)c2)NC(=O)[C@H](CC(=O)O)NC(=O)[C@H](Cc2ccc(OC(F)(F)F)cc2)NC(=O)[C@H](C)NC(=O)CSC[C@@H](C(=O)N[C@@H](CCN)C(=O)NCCCCCCCCCCCCCCC(=O)O)NC(=O)[C@H](CCC(=O)O)NC(=O)[C@H](C(C)C)NC(=O)[C@H](CC2CCCCC2)NC(=O)[C@H](CCN)NC1=O` [Compound 3866] ({CH2CO}-AY(CF3)D[Phe(3-CF3)][Phe(4-CH2CH2COOH)][Bip]Y(Carboxymethyl)[Orn][dL][Dab][Cha]VEC[Dab]-{NH(CH2)14COOH}; thioether N-14): 676 nM.
Take `CC(C)C[C@H]1NC(=O)[C@H](Cc2cnc[nH]2)NC(=O)[C@H](Cc2ccc(C(=O)O)cc2)NC(=O)[C@H](Cc2ccc(-c3ccccc3)cc2)NC(=O)[C@H](Cc2ccc(C(=O)O)cc2)NC(=O)[C@H](Cc2cccc(C(F)(F)F)c2)NC(=O)[C@H](CC(=O)O)NC(=O)[C@H](Cc2ccc(C(=O)O)cc2)NC(=O)[C@H](C(C)O)NC(=O)CSC[C@@H](C(=O)N[C@@H](CCN)C(=O)NCCOCCOCC(=O)NCCCCCCCCCCCCC(=O)O)NC(=O)[C@H](CC(=O)O)NC(=O)[C@H](C(C)C)NC(=O)[C@H](CC2CCCCC2)NC(=O)[C@H](CCN)NC1=O` (stereo partly drawn) [Compound 3867] ({CH2CO}-[Thr(3ξ)][Phe(4-COOH)]D[Phe(3-CF3)][Phe(4-COOH)][Bip][Phe(4-COOH)]H[dL][Dab][Cha]VDC[Dab][AEEA]-{NH(CH2)12COOH}; thioether N-14): the IC50 is 48.1 nM.
